Results from US12251382B2, “Substituted amino-pyrimidine compound for use in a method for treatment and prevention of multiple sclerosis” (Merck Patent GmbH, priority 2018, dated 2025).
“Also recorded” adds a separate entry of the source.

Test: Phase I Holter ECG assessment and concentration-QTcF analysis
Type: in vivo, human
Conditions: for Mean ΔΔQTcF: 100 mg dose group (n=6); for Predicted mean ΔΔQTcF: linear mixed model
Procedure: Holter ECG recordings of 24 h duration were performed on Day 1 in Parts 1 and 2 of the study using digital 12-lead Holter devices (GI M12R, Manlius, N.Y.) and analyzed in the Quintiles central ECG laboratory. Ten second 12-lead ECGs were extracted in triplicate using Antares ECG extraction software (version 2.15.1.0, AMPS-LLC, New York, N.Y.) for each PK time point (predose and 0.25, 0.5, 1.0, 1.5, 2, 2.5, 3, 4, 5, 6, 8, 12, 16, 24 h postdose) within a −5 to 0 minute window prior to and a 5 minute window after each sampling time point. The quality of extracted ECG snapshots was checked by a Holter Associate/Specialist using the Anatares quality control review interface. The mean QT and RR values from the triplicate ECGs were used to calculate QTcF for each time point.
The dataset consisted of Day 1 ECG and PK data from all subjects in Parts 1 and 2 of the study.
Model derived predicted mean ΔΔQTcF was calculated for the geometric mean Cmax of each dose cohort. Two-sided 90% CIs of the estimate were determined using bootstrapping (1,000 resamples). By-time point analysis of actual values and change from baseline was performed for QTcF. Mean ΔΔQTcF with an associated 90% CI was summarized by time point for each dose cohort.

C=CC(=O)N1CCC(CNc2ncnc(N)c2-c2ccc(Oc3ccccc3)cc2)CC1 [Evobrutinib, 1-(4-(((6-amino-5-(4-phenoxyphenyl)pyrimidin-4-yl)amino)methyl)piperidin-1-yl)prop-2-en-1-one]
Geometric mean Cmax (25 mg dose group, Day 1, Parts 1 and 2): 86.48 ng/mL
Geometric mean Cmax (25 mg dose group, Day 1, Parts 1 and 2, listed as evobrutinib): 86.5 ng/mL
Geometric mean Cmax (50 mg dose group, Day 1): 233.9 ng/mL
Geometric mean Cmax (75 mg dose group, Day 1): 253.9 ng/mL
Mean ΔΔQTcF (6 h post-dose): 7.1 ms
Mean ΔΔQTcF (8 h post-dose): 5.6 ms
Mean ΔΔQTcF (12 h post-dose): 7.2 ms
Geometric mean Cmax (100 mg dose group, Day 1): 308.6 ng/mL
Geometric mean Cmax (200 mg dose group, Day 1, Parts 1 and 2): 689.2 ng/mL
Geometric mean Cmax (350 mg dose group, Day 1): 845.9 ng/mL
Geometric mean Cmax (500 mg dose group, Day 1): 1512.3 ng/mL
Geometric mean Cmax (500 mg dose group, Day 1, listed as evobrutinib): 1,512 ng/ml
Subjects with change from baseline in QTcF between 30 ms and 60 ms (2 of 81 subjects, both in the 200 mg dose group): 2.5%
Change from baseline in QTcF (all ECGs): ≤ 60 ms
Mean ΔΔQTcF over the range of doses evaluated (all time points, with the exception of the 100 mg dose group): < 5 ms
Absolute QTcF value (any dose group, any time point): ≤ 450 ms
Predicted mean ΔΔQTcF (at geometric mean Cmax of 25 mg dose group): -0.78 ms
Predicted mean ΔΔQTcF (at geometric mean Cmax of 50 mg dose group): -0.82 ms
Predicted mean ΔΔQTcF (at geometric mean Cmax of 75 mg dose group): -0.82 ms
Predicted mean ΔΔQTcF (at geometric mean Cmax of 100 mg dose group): -0.84 ms
Predicted mean ΔΔQTcF (at geometric mean Cmax of 200 mg dose group): -0.94 ms
Predicted mean ΔΔQTcF (at geometric mean Cmax of 350 mg dose group): -0.98 ms
Predicted mean ΔΔQTcF (at geometric mean Cmax of 500 mg dose group): -1.16 ms
Change from baseline in HR, PR and QRS values post-dose (categorical analysis): no clinically significant change from baseline
Slope of the relationship between placebo-adjusted ΔQTcF and concentration (linear mixed-effects model, P=0.86): −0.00027 ms/ng per mL
Subjects with treatment-emergent T wave morphological abnormalities (one in the 50 mg and one in the 100 mg dose group): two
Effect on QTcF / exposure-effect relationship (single doses up to 500 mg): did not prolong QTcF; also recorded: No evidence of a significant exposure-effect relationship; also recorded: no prolongation of QTcF
Hysteresis between plasma concentration and ΔQTcF (statistical test based on ΔΔQTcF): no evidence of hysteresis
